Results taken from ChEMBL document CHEMBL1139525, “Targeting and inhibition of cell growth by an engineered dendritic nanodevice” (J Med Chem, 2005).

Assays:
[1] = Dissociation constant against folic acid receptor (FAR); Value ranges from 0.1-1 nM; design: species or system Homo sapiens
KB = assay: Concentration required to completely block the uptake of either G5-FI-FA or G5-FI-FA-MTX dendrimer (30 nM) in FAR expressing KB cells; format: functional, cell-based; settings: Homo sapiens

Kd [1]: 1 nM
SMILES: Nc1nc(=O)c2nc(CNc3ccc(C(=O)N[C@@H](CCC(=O)O)C(=O)O)cc3)cnc2[nH]1 [FOLIC ACID]
Concentration (KB): 50 µM
